# Reference: US5824785A, “Dyes for ink jet printing” (Ilford Imaging Switzerland GmbH, priority 1995, dated 1998)
# Test: solubility of the dyes in water
# Type: physicochemical
# Conditions: excess dye stirred 1 h at 50° C., cooled to 20° C., filtered, spectroscopic determination, read-out: Solubility (in g per 100 ml)
# Description: The solubilities of the dyes according to the invention were determined as follows:
# An excess of dye was heated at 50° C. in water with stirring for one hour. The mixture was then cooled down to 20° C. and filtered, and the dye content of the clear solution was determined spectroscopically.
row,Compound,solubility
1,CN(CCO)c1nc(NCCS(=O)(=O)O)nc(Nc2ccc(N=Nc3c(N)ccc4cc(S(=O)(=O)O)cc(O)c34)c(S(=O)(=O)O)c2)n1 [compound 100],350 mg/mL
2,Nc1ccc2cc(S(=O)(=O)O)cc(O)c2c1N=Nc1ccc(Nc2nc(NCCS(=O)(=O)O)nc(N(CCO)CCO)n2)cc1S(=O)(=O)O [compound 101],320 mg/mL
3,Nc1ccc2cc(S(=O)(=O)O)cc(O)c2c1N=Nc1ccc(Nc2nc(NCCS(=O)(=O)O)nc(NCCS(=O)(=O)O)n2)cc1S(=O)(=O)O [compound 102],260 mg/mL
4,"COc1cc(N=Nc2c(N)ccc3cc(S(=O)(=O)O)cc(O)c23)c(C)cc1Nc1nc(NCCO)nc(Nc2cccc(S(=O)(=O)O)c2)n1 [dye 1, reference compound]",200 mg/mL
5,"CCCCCCNc1nc(NCCCCCC)nc(Nc2cc(S(=O)(=O)O)cc3cc(S(=O)(=O)O)c(N=Nc4ccccc4S(=O)(=O)O)c(O)c23)n1 [dye 5, reference compound]",150 mg/mL
